The results in this text go back to PubChem BioAssay (NCI).

Some test systems named below: 786-0 renal; BT-549 breast; CAKI-1 renal; COLO 205 colon; HCC-2998 colon; HCT-116 colon; HOP-92 NSCLC; HS 578T breast; IGROV1 ovarian; MDA-N; NCI-H226 lung; NCI-H522 lung; OVCAR-8 ovarian; RXF 393 renal; SF-295 CNS; SF-539 CNS; SK-OV-3 ovarian; T-47D breast.
Common to all, as to assay: NCI tumour cell line growth inhibition, 48 h

Molecules are shown by their SMILES.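 Assay format: 96-well plates, 48-hour exposure. TGI is the concentration that stops growth completely.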

For the molecule `N#Cc1c(C#N)c(SSc2c(C#N)c(C#N)c(N)n2-c2cccc3ccccc23)n(-c2cccc3ccccc23)c1N`, the TGI in the test with 786-0 renal is 4.26 µM; with BT-549 breast, 12.6 µM; with CAKI-1 renal it was 29.5 µM; in the test with COLO 205 colon, 10.6 µM; in the test with HCC-2998 colon it was 85.8 µM; in the test on HCT-116 colon it was 14.1 µM. The TGI with HOP-92 NSCLC was 13.6 µM; in the test on HS 578T breast, more than 57.6 µM; in the test with IGROV1 ovarian it was more than 100 µM; in the test with MDA-N, 12.4 µM; in the test on NCI-H226 lung it was 56.3 µM; in the test on NCI-H522 lung, 3.15 µM. Moreover, the TGI is more than 25.3 µM with OVCAR-8 ovarian; 17.4 µM in the test on RXF 393 renal; 38.9 µM in the test on SF-295 CNS; 35.7 µM in the test with SF-539 CNS; 54.8 µM in the test on SK-OV-3 ovarian; 5.47 µM in the test with T-47D breast.

`COc1ccccc1N1CCN(S(=O)(=O)c2ccc(Cl)cc2)C1=N`: the TGI in the test with 786-0 renal, with BT-549 breast, with CAKI-1 renal, with COLO 205 colon, in the test with HCT-116 colon and with HS 578T breast was more than 100 µM in each case. For the same molecule, the TGI with MDA-N, in the test with NCI-H522 lung, with OVCAR-8 ovarian, in the test with RXF 393 renal, with SF-295 CNS and in the test on SF-539 CNS was more than 100 µM each time. The TGI in the test with SK-OV-3 ovarian and with T-47D breast was more than 100 µM in each case.

Consider `C1=NN2C(c3ccccc3)=NOC2C2C(c3ccccc3)=NOC12` (stereo not given), for which the TGI in the test on 786-0 renal, in the test on BT-549 breast, in the test on CAKI-1 renal, with COLO 205 colon, in the test on HCC-2998 colon and with HCT-116 colon was more than 100 µM in each case. In addition, the TGI in the test with HS 578T breast, in the test with IGROV1 ovarian, in the test with MDA-N, in the test on NCI-H226 lung, in the test with NCI-H522 lung and with OVCAR-8 ovarian was more than 100 µM in each case. Besides, the TGI in the test on RXF 393 renal, in the test on SF-295 CNS, with SF-539 CNS and in the test on SK-OV-3 ovarian was more than 100 µM throughout.

On to `Nc1ncnc2c1ccn2CC#CCO`, for which the TGI in the test on 786-0 renal, in the test on BT-549 breast, in the test with CAKI-1 renal, in the test with COLO 205 colon, in the test on HCC-2998 colon and in the test with HCT-116 colon was more than 100 µM each time. The TGI with HOP-92 NSCLC, in the test with HS 578T breast, in the test on IGROV1 ovarian, with MDA-N, in the test on NCI-H522 lung and in the test with OVCAR-8 ovarian was more than 100 µM in each case. For the same molecule, the TGI in the test on RXF 393 renal, in the test on SF-295 CNS, with SF-539 CNS, in the test on SK-OV-3 ovarian and with T-47D breast was more than 100 µM throughout.

As to `C1CSCCSCCSCCSCCS1`, the TGI in the test on 786-0 renal, in the test on BT-549 breast, in the test with CAKI-1 renal, with COLO 205 colon, in the test on HCC-2998 colon and with HCT-116 colon was more than 100 µM each time. Besides, the TGI with HOP-92 NSCLC, in the test with HS 578T breast, with IGROV1 ovarian, in the test with MDA-N, with NCI-H226 lung and in the test with NCI-H522 lung was more than 100 µM in each case. The TGI in the test on OVCAR-8 ovarian, with RXF 393 renal, in the test with SF-295 CNS, in the test on SF-539 CNS, in the test with SK-OV-3 ovarian and in the test with T-47D breast was more than 100 µM each time.

Consider `C=C1N(C)c2ccc(S(=O)(=O)c3ccc4c(c3)C(C)(C)C(=C)N4C)cc2C1(C)C`, for which the TGI with 786-0 renal is more than 100 µM; with BT-549 breast, 87.9 µM; in the test on CAKI-1 renal, more than 100 µM; in the test on COLO 205 colon, 29.8 µM; in the test with HCC-2998 colon, more than 100 µM; in the test on HCT-116 colon, more than 100 µM. For the same molecule, the TGI was 41.1 µM with HOP-92 NSCLC; 89.2 µM in the test on HS 578T breast; more than 100 µM with IGROV1 ovarian; more than 100 µM in the test with MDA-N; more than 100 µM in the test on NCI-H226 lung; 58.7 µM in the test on NCI-H522 lung. Moreover, the TGI in the test on OVCAR-8 ovarian, in the test with SF-295 CNS, in the test on SF-539 CNS, in the test on SK-OV-3 ovarian and in the test with T-47D breast was more than 100 µM each time.

`Nc1ccc(Oc2ccc(C34CC5C6CC7(c8ccc(Oc9ccc(N)cc9)cc8)CC5C(C3)C(C7)C6C4)cc2)cc1`: the TGI with 786-0 renal, in the test with BT-549 breast, with CAKI-1 renal, in the test with COLO 205 colon, with HCT-116 colon and with HOP-92 NSCLC was more than 100 µM in each case. Further, the TGI with HS 578T breast, with IGROV1 ovarian, in the test with MDA-N, in the test with NCI-H226 lung, in the test with NCI-H522 lung and in the test with OVCAR-8 ovarian was more than 100 µM in each case. For the same molecule, the TGI with RXF 393 renal, with SF-295 CNS and in the test with T-47D breast was more than 100 µM throughout.
